{
  "source": "patent US20090081320A1",
  "about": "“Method for Weight Reduction” (priority 2005, published 2009)",
  "assay": "General observations in test persons using the diet with or without composition",
  "format": "in vivo, human",
  "conditions": "diet not adhered to, additional intake",
  "text": "It was observed that the application of the diet according to the invention by itself leads to a weight reduction. In all the test persons, however, side effects such as weakness and/or indisposition as well as gluttonous attacks were reported. […] This is due to the fact that with the intake of the composition that contains one or several active agents which promote fat burning, utilizable energy is made available and the fat burning is accelerated. A test person reported at the start of the reduction cycle on changing over to the diet in accordance with the invention combined with the simultaneous intake of a composition that contains one or several active agents which promote fat burning, that after 2-3 days, the feeling of indisposition or gluttonousness were no longer to be felt and the diet could be well adhered to.\nTherefore, the composition contains, in a preferred embodiment in addition to one or several active agents that promote fat burning, one or several active agents that reduce the breakdown of fat to fatty acids in the intestines. Active agents that reduce the breakdown of fat to fatty acids in the intestines are herein active agents that inhibit enzymes which catalyse the breakdown of the fats (tricylglycerines) to fatty acids and glycerines. […] For a body weight deviating from this value, the quantity is to be appropriately adjusted.",
  "data": [
    {"smiles": "C[N+](C)(C)C[C@H](O)CC(=O)[O-]", "note": "[L-canitine, (3R)-hydroxy-4-(trimethylammonium)-butyrat]", "values": [
      {"measurement": "weight loss", "result": "no weight loss"}
    ]}
  ]
}
